The record followed here is patent US9050264B2, “Cellulose capsules and methods for making them” (University of Iowa Research Foundation, priority 2009, dated 2015).

SMILES strings stand for the structures. Counter-ions that a name gives are not always drawn.

What all share (format): physicochemical
A short description of data set [1]: Release of diphenhydramine hydrochloride from cellulose capsules in water (USP II basket, HPLC). The conditions noted are these: cellulose capsule, water 900 mL. How it is done: Cellulose capsule shells (shell thickness 0.07-1.0 mm), prepared according to Example 2, were filled with diphenhydramine hydrochloride and lactose (400 mg) mixed in different weight-by-weight ratios (50:50, 25:75, 12.5:87.5, 6.25:93.75 or 3.75:96.25 weight ratios of diphenhydramine hydrochloride and lactose, respectively). The release study was performed in water (900 mL) at 37±0.5° C. and 100±2 r.p.m. using a Hansen Research USP II basket apparatus (Hansen Research Corp., Chatsworth, Calif.). The amount of drug released was determined by HPLC using a fully automated Shimadzu LC-10A high performance liquid chromatograph, equipped with a C18 analytical column (Supelco). The drug was eluted with a 1:4 (v/v) mixture of methanol:water (containing 1% triethylamine and 2% glacial acetic acid) at a flow rate of 0.2 mL/min and detected at a wavelength of 256 nm. […] The steady state release rates mentioned above depended linearly with the calculated osmotic pressure developed inside the capsule shell.

The nature of data set [2]: Release of KCl from cellulose capsules in unstirred aqueous urea solutions (potassium ion selective electrode). The conditions noted are these: cellulose capsule (shell 0.07-0.10 mm), KCl 500 mg, unstirred 200 mL, 37 C. How it is done: Cellulose capsule shells (shell thickness 0.07-0.10 mm), prepared according to Example 2, were filled with KCl (500 mg) and subjected to the release study in the unstirred dissolution medium (200 mL) containing 0.0, 1.5, 3.0, 5.5, or 8.0 M urea at 37±0.5° C. using a Hansen Research USP II basket apparatus (Hansen Research Corp., Chatsworth, Calif.). The amount of KCl released was analyzed using a potassium ion selective electrode connected to a pH meter (Orion model 420, Fisher Scientific, Inc., Pittsburgh, Pa.).

The nature of data set [3]: Dissolution study of acetaminophen release from cellulose capsules in water (USP II basket, HPLC). The conditions noted are these: for release rate: acetaminophen 50 mg + lactose 150 mg, water 900 mL, 37 C, 100 r.p.m. How it is done: Cellulose capsule shells of three different shell thicknesses (0.05, 0.06 and 0.07 mm) were prepared from the methylolcellulose solution (cellulose content 4.4%, w/w) according to Example 2. They were filled with a homogeneously mixed powder blend of acetaminophen (50 mg) and lactose (150 mg). The dissolution study was performed in water (900 mL) at 37±0.5° C. and 100±2 r.p.m. using a Hansen Research USP II basket apparatus (Hansen Research Corp., Chatsworth, Calif.). The amount of drug released was determined by high performance liquid chromatography (HPLC) using an absolute calibration method and a fully automated Shimadzu LC-6A high performance liquid chromatograph, equipped with a C18 analytical column (Supelco—Sigma Aldrich, Bellefonte, Pa.). The drug was eluted with a 1:3 methanol:water mixture at a flow rate of 0.5 mL/min and detected at a wavelength of 243 nm. The release of acetaminophen increased linearly with time (see FIG. 4A).
Cellulose capsule shells (shell thickness 0.07-0.10 mm) prepared according to Example 2 were filled with 50, 100 and 200 mg of acetaminophen. The release studies were carried out in purified water (900 mL) at 37±0.5° C. and 100±2 r.p.m. The amount of acetaminophen released over time was determined by HPLC using conditions described above.
Cellulose capsule shells (shell thickness 0.07-0.10 mm), prepared according to Example 2, were filled with a homogeneously mixed powder blend of acetaminophen (100 mg) and 15, 50, 100, 150, or 200 mg of polyethylene glycol (PEG) 8000 (corresponding to the percent weight ratio of 87:13, 67:33, 50:50, 40:60, or 33:67, respectively, for the total powder fill in the capsule). The release studies were performed in purified water (900 mL) at 37±0.5° C. and 100±2 r.p.m. using the Hansen Research USP II basket apparatus (Hansen Research Corp., Chatsworth, Calif.). The amount of acetaminophen released was determined by HPLC as described above. […] Above 60% w/w PEG 8000 in the formulation, there was no change in the release rate compared to the rate at 50% PEG in the mixture.
Cellulose capsule shells (shell thickness 0.07-0.1 mm) prepared according to Example 2 were filled with acetaminophen (100 mg) and 50, 100 and 200 mg potassium chloride (KCl) (corresponding to the weight ratio of 33:67, 50:50 or 67:33, respectively, for the total powder fill in the capsule). The amounts of acetaminophen released at different times were determined by HPLC, following the procedure described above.

Data set [4] can be described thus: Dissolution study of cellulose:Eudragit S100 capsule shells in pH 3.0 and pH 7.4 buffers (USP II basket, HPLC). The conditions noted are these: Cellulose:Eudragit (90:10%, w/w) capsule shell ~0.08 mm, acetaminophen 50 mg + anhydrous lactose 150 mg. On the procedure:
Cellulose:Eudragit (90:10%, w/w) capsule shells (shell thickness˜0.08 mm) prepared according to Example 2 were filled with a homogeneously mixed powder blend of acetaminophen (50 mg) and anhydrous lactose (150 mg) and subjected to dissolution study first in pH 3.0 phthalate buffer (900 mL) for 3 h at 37±0.5° C. and 100±2 r.p.m followed by in pH 7.4 phosphate buffer (900 mL) for 5 h at 37±0.5° C. and 100±2 r.p.m. using a Hansen Research USP II basket apparatus (Hansen Research Corp., Chatsworth, Calif.). The amount of drug released was determined by HPLC according to the method described above. […] The higher steady-state release rate observed for acetaminophen at pH 7.4 is attributed to the dissolution of Eudragit, causing the capsule shell to become more porous.
Cellulose, cellulose-Eudragit (90:10) and cellulose:Eudragit (90:10%, w/w) capsule shells (shell thickness˜0.08 mm) were prepared according to Example 2. The dissolution test was carried out in pH 7.4 phosphate buffer (900 mL) for 5 h at 37±0.5° C. and 100±2 r.p.m. using a Hansen Research USP II basket apparatus (Hansen Research Corp., Chatsworth, Calif.). The amount of drug released was determined by HPLC according to the method described above. FIG. 12 compares the release results from the three capsule systems. The steady-state release rates calculated were 1.8, 3.1 and 4.6 mg/h, respectively.

`CN(C)CCOC(c1ccccc1)c1ccccc1` [diphenhydramine hydrochloride]: the steady-state release rate in data set [1] (3.75:96.25 diphenhydramine hydrochloride:lactose core powder mixture (400 mg)) was 3.92 mg/h; in data set [1] (6.25:93.75 diphenhydramine hydrochloride:lactose core powder mixture (400 mg)), 7.58 mg/h; in data set [1] (12.5:87.5 diphenhydramine hydrochloride:lactose core powder mixture (400 mg)) it was 12.70 mg/h; in data set [1] (25:75 diphenhydramine hydrochloride:lactose core powder mixture (400 mg)), 34.17 mg/h; in data set [1] (50:50 diphenhydramine hydrochloride:lactose core powder mixture (400 mg)) it was 67.96 mg/h.
In the case of `[Cl-].[K+]` [KCl, potassium chloride], the “steady state release rate” value came out at 142.8 mg/h in data set [2] (0.0 M urea); 115.8 mg/h in data set [2] (1.5 M urea); 100.2 mg/h in data set [2] (3.0 M urea); 73.8 mg/h in data set [2] (5.5 M urea); 46.2 mg/h in data set [2] (8.0 M urea).
For the compound `CC(=O)Nc1ccc(O)cc1` [acetaminophen], the steady-state release rate in data set [3] (cellulose capsule (shell 0.07-0.10 mm) filled with 50 mg acetaminophen, purified water) came to 3.05 mg/h; in data set [3] (cellulose capsule (shell 0.07-0.10 mm) filled with 100 mg acetaminophen, purified water), 3.43 mg/h; in data set [3] (cellulose capsule (shell 0.07-0.10 mm) filled with 200 mg acetaminophen, purified water), 3.15 mg/h; in data set [3] (cellulose capsule (shell 0.07-0.10 mm), 33:67 (% w/w) acetaminophen:PEG 8000 (100 mg + 200 mg), purified water), 7.38 mg/h; in data set [3] (cellulose capsule (shell 0.07-0.1 mm), 33:67 acetaminophen:KCl mixture), 9.94 mg/h; in data set [3] (cellulose capsule (shell 0.07-0.10 mm), 40:60 (% w/w) acetaminophen:PEG 8000 (100 mg + 150 mg), purified water) it was 7.17 mg/h. Also, the steady-state release rate in data set [3] (cellulose capsule (shell 0.07-0.10 mm), 50:50 (% w/w) acetaminophen:PEG 8000 (100 mg + 100 mg), purified water) is recorded as 6.95 mg/h; in data set [3] (cellulose capsule (shell 0.07-0.1 mm), 50:50 acetaminophen:KCl mixture) it was 10.14 mg/h; in data set [3] (cellulose capsule (shell 0.07-0.10 mm), 67:33 (% w/w) acetaminophen:PEG 8000 (100 mg + 50 mg), purified water) it was 6.62 mg/h; in data set [3] (cellulose capsule (shell 0.07-0.1 mm), 67:33 acetaminophen:KCl mixture), 11.41 mg/h; in data set [3] (cellulose capsule (shell 0.07-0.10 mm), 87:13 (% w/w) acetaminophen:PEG 8000 (100 mg + 15 mg), purified water) it was 5.92 mg/h; in data set [4] (pH 3.0 phthalate buffer, 3 h), 2.68 mg/h. Besides, the steady-state release rate in data set [4] (pH 7.4 phosphate buffer, 5 h) is 4.76 mg/h. In addition, the release rate is reported as 5.25 mg/h in data set [3] (cellulose capsule shell thickness 0.05 mm), 4.30 mg/h in data set [3] (cellulose capsule shell thickness 0.06 mm) and 3.06 mg/h in data set [3] (cellulose capsule shell thickness 0.07 mm).
